{
  "source": "patent US20040224984A1",
  "about": "“Methods of treating inflammations and infections with pyridinium salts” (priority 2003, published 2004)",
  "key": {"Rodent [1]": {"test_system": "Rodent", "assay": "4 Hour Carrageenan Pleuritis (rodent inflammation model)", "type": "in vivo", "settings": "Prednisolone 0.02 mg/kg"}, "Rodent [2]": {"test_system": "Rodent", "assay": "4 Hour Allergic Pleuritis (rodent inflammation model)", "type": "in vivo", "settings": "Prednisolone 0.004 mg/kg"}, "Rodent [3]": {"test_system": "Rodent", "assay": "4 Hour Allergic Synovitis (rodent inflammation model)", "type": "in vivo", "settings": "Prednisolone 0.05 mg/kg"}, "[4]": {"test_system": "roundworms, threadworms, and whipworms", "settings": "reported; U.S. Pat. No. 3,075,975 and 3,085,935; cited from earlier work"}, "Candida albicans": {"test_system": "Candida albicans", "assay": "Vaginal candidiasis in female Charles River mice", "type": "in vivo", "settings": "mice infected vaginally, 0.025 mL daily for 4 days from 6 hours post-infection, formula I 0.5% (w/v), chlortrimazole 1% (w/v)", "description": "Mice, infected vaginally with Candida albicans, were treated with 0.025 mL of the above treatments, commencing 6 hours post-infection, daily for 4 days."}},
  "data": [
    {"molecule": "C[C@]12C=CC(=O)C=C1CC[C@@H]1[C@@H]2[C@@H](O)C[C@@]2(C)[C@H]1CC[C@]2(O)C(=O)CO", "note": "[Prednisolone]", "values": [
      {"measurement": "% Inhibition Edema", "setting": "Rodent [1]", "result": 31, "unit": "%"},
      {"measurement": "% Inhibition Neutrophils", "setting": "Rodent [1]", "result": 21, "unit": "%"},
      {"measurement": "% Inhibition Edema", "setting": "Rodent [2]", "result": 33, "unit": "%"},
      {"measurement": "% Inhibition Neutrophils", "setting": "Rodent [2]", "result": 25, "unit": "%"},
      {"measurement": "% Inhibition Edema", "setting": "Rodent [3]", "result": 36, "unit": "%"},
      {"measurement": "% Inhibition Neutrophils", "setting": "Rodent [3]", "result": 37, "unit": "%"}
    ]},
    {"molecule": "CC[n+]1c(/C=C/c2ccc(N3CCCC3)cc2)cccc1/C=C/c1ccc(N2CCCC2)cc1.[I-]", "note": "[Stilbazium iodide]", "values": [
      {"measurement": "Anthelmintic efficacy", "setting": "[4]", "result": "effective against roundworms, threadworms, and whipworms"}
    ]},
    {"molecule": "Clc1ccccc1C(c1ccccc1)(c1ccccc1)n1ccnc1", "note": "[Chlortrimazole]", "values": [
      {"measurement": "Cleared", "setting": "Candida albicans; mice cleared/treated", "result": "7/10"},
      {"measurement": "Improved", "setting": "Candida albicans; mice improved/treated", "result": "2/10"}
    ]}
  ]
}
